What was measured:
human H4 = molecular target: T1, human H4 (Homo sapiens, UniProt Q9H3N8); assay: In vitro histamine receptor cell-based assay (aequorin bioluminescence), H4 antagonism; conditions: CHO-K1 cells expressing human H4, aequorin and Gα16; histamine at EC80; read-out: H4 Antagonist EC50
T1 construct: host or cells: CHO-K1
Method: (§1) The cell-based assays utilize an aequorin dependent bioluminescence signal. Doubly-transfected, stable CHO-K1 cell lines expressing human H1 or H4, mitochondrion-targeted aequorin, and (H4 only) human G protein Gα16 are obtained from Perkin-Elmer. Cells are maintained in F12 (Ham's) growth medium, containing 10% (vol./vol.) fetal bovine serum, penicillin (100 IU/mL), streptomycin (0.1 mg/mL), zeocin (0.25 mg/mL) and geneticin (0.40 mg/mL). Cell media components are from Invitrogen, Inc. One day prior to assay, the growth medium is replaced with the same, excluding zeocin and geneticin.
(§2) For assay preparation, growth medium is aspirated, and cells are rinsed with calcium-free, magnesium-free phosphate-buffered saline, followed by two to three minute incubation in Versene (Invitrogen, Inc.) at 37° C. Assay medium (DMEM:F12 [50:50], phenol-red free, containing 1 mg/mL protease-free bovine serum albumin) is added to collect the released cells, which are then centrifuged. The cell pellet is re-suspended in assay medium, centrifuged once more, and re-suspended in assay medium to a final density of 5×10^6 cells/mL. Coelenterazine-h dye (500 μM in ethanol) is added to a final concentration of 5 μM, and mixed immediately. The conical tube containing the cells is then wrapped with foil to protect the light-sensitive dye. The cells are incubated for four hours further at room temperature (approximately 21° C.) with end-over-end rotation to keep them in suspension.
(§3) Just before assay, the dye-loaded cells are diluted to 0.75×10^6 cells/mL (H1 receptor) or 1.5×10^6 cells/mL (H4 receptor) with additional assay medium. Cells are dispensed to 1536 well micro-titer plates at 3 μL/well. To assay receptor antagonism, 60 nl of 100× concentration test compounds in 100% dimethyl sulfoxide (DMSO) are dispensed to the wells, one compound per well, by passive pin transfer, and the plates are incubated for 15 minutes at room temperature. Assay plates are then transferred to a Lumilux bioluminescence plate reader (Perkin-Elmer) equipped with an automated 1536 disposable tip pipette. The pipette dispenses 3 μL/well of agonist (histamine, at twice the final concentration, where final concentration is a previously determined EC80) in assay medium, with concurrent bioluminescence detection. […]
(§4) CCD image capture on the Lumilux includes a 5 second baseline read prior to agonist addition, and generally a 40 second read per plate after agonist addition. A decrease in bioluminescence signal (measured either as area-under-the-curve, or maximum signal amplitude minus minimum signal amplitude) correlates with receptor antagonism in a dose dependent manner. […] Efficacy is measured as a percentage of positive control activity.

human H1 = molecular target: T2, human H1 (Homo sapiens, UniProt P35367); assay: In vitro histamine receptor cell-based assay (aequorin bioluminescence), H1 antagonism; conditions: CHO-K1 cells expressing human H1 and aequorin; histamine at EC80; read-out: H1 Antagonist EC50
T2 construct: host or cells: CHO-K1
T2 sequence (P35367 whole entry): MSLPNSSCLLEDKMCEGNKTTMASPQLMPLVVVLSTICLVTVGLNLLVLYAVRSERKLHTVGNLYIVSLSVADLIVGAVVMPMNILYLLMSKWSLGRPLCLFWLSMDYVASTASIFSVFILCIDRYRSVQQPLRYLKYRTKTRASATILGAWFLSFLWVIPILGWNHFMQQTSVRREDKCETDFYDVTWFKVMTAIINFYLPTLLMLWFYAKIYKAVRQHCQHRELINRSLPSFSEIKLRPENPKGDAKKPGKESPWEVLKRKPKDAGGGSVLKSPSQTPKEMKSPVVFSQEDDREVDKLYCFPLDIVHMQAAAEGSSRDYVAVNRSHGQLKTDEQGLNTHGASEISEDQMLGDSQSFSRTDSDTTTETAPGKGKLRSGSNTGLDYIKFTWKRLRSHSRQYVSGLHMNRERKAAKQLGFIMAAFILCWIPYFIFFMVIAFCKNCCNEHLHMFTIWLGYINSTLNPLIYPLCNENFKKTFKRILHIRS
Method: as §1, §2, §3, §4

EC50 (human H4) [µM] | EC50 (human H1) [µM] | Structure (SMILES)
≤ 10 | > 10 | Cc1nc2c3cc(Cl)sc3nc(N3CCNCC3)n2n1 [Example 2, 8-chloro-2-methyl-5-(piperazin-1-yl)thieno[3,2-e][1,2,4]-triazolo[1,5-c]pyrimidine]
> 10 | > 10 | Cc1nc2c3sc(Cl)cc3nc(N3CCNCC3)n2n1 [Example 4, 8-chloro-2-methyl-5-(piperazin-1-yl)thieno[2,3-e][1,2,4]triazolo[1,5-c]pyrimidine]
≤ 10 | > 10 | Cc1nc2c3cc(Cl)sc3nc(N3CCN(C)CC3)n2n1 [Example 1, 8-chloro-2-methyl-5-(4-methylpiperazin-1-yl)thieno[3,2-e][1,2,4]triazolo[1,5-c]pyrimidine]
≤ 10 | > 10 | Cc1nc2c3sc(Cl)cc3nc(N3CCN(C)CC3)n2n1 [Example 3, 8-chloro-2-methyl-5-(4-methylpiperazin-1-yl)thieno[2,3-e][1,2,4]triazolo[1,5-c]pyrimidine]
